Data from article PMC3884847 (Journal of Medicinal Chemistry, 2013).
Values after ≈ are worked out from the molar mass of the structure shown. Values joined by “and” are separate entries in the source; they are usually repeats but may differ in a detail not shown here. Equal entries are not always repeated. Where two headings read alike, the source gives them in different places.

Legend:
[1] = human liver microsomes
T. cruzi (Tulahuen TcVI) [2] = test: Initial PK/PD efficacy: 10-day once daily oral dosing of T. cruzi infected mice; format: in vivo, Swiss mice; details: 20 mg/kg oral once daily for up to 10 days
T. cruzi (Tulahuen TcVI) [3] = system: T. cruzi (Tulahuen TcVI)
T. cruzi [4] = details: twice daily treatment for 30 days, acute and chronic models; cited from earlier work
in vitro = details: rat, L6 IC50 (cytotoxicity), L6 cells
[5] = system: T. cruzi (Tulahuen strain (Tc VI) transfected with β-galactosidase), amastigote form; test: microbe, parasite or virus in culture; details: Trypanosoma cruzi
T. cruzi [6] = details: cited from earlier work
T. cruzi (Tulahuen TcVI) [7] = details: once daily oral 20 mg/kg for 20 days, cited from earlier work
physchem = details: pH 2
[8] = 20 mg/kg oral once daily 20 days, day 8 = first compound dose
[9] = 20 mg/kg oral once daily 20 days, end after three cycles of immunosuppression
[10] = 20 mg/kg oral once daily 20 days, first day of nontreatment period
[11] = 20 mg/kg oral once daily 20 days, last day of nontreatment period
[12] = 20 mg/kg, PCR of blood, spleen, heart, skeletal muscle, colon
[13] = 5 mg/kg oral once daily 20 days
[14] = 10 mg/kg oral once daily 20 days
[15] = 100 mg/kg oral once daily 20 days
[16] = 20 mg/kg oral once daily 20 days

For O=C(C(c1ccc(Cl)cc1)c1cccnc1)N1CCN(c2ccc(C(F)(F)F)cc2)CC1 (racemic) [(rac)-7, 2-(4-Chlorophenyl)-1-{4-[4-(trifluoromethyl)phenyl]piperazin-1-yl}-2-(pyridin-3-yl)ethanone], the “predicted human EH” value ([1]; Table 2) was 0.50, the “parasites cleared from blood during 10-day dosing?” value (shortened to “parasites cleared”) (T. cruzi (Tulahuen TcVI) [2]) was “yes” and the “cure by PCR analyses of organs and blood” value (T. cruzi (Tulahuen TcVI) [3]; 20 mg/kg daily oral) was “no cures were obtained”. The “mouse survival after infection, day 8” value (T. cruzi (Tulahuen TcVI) [3]; [8]) was 5 of 5, the “mouse survival after infection, day 58” value (T. cruzi (Tulahuen TcVI) [3]; [9]) was 3 of 5 and the “mouse survival after infection, day 28” value (T. cruzi (Tulahuen TcVI) [3]; [10]) was 5 of 5. For the same compound, the “mouse survival after infection, day 37” value (T. cruzi (Tulahuen TcVI) [3]; [11]) was 5 out of 5 and 5 of 5 and the “–ve PCR” value (T. cruzi (Tulahuen TcVI) [3]; [12]) was 0 of 3.

In the case of O=C([C@H](c1ccc(Cl)cc1)c1cccnc1)N1CCN(c2ccc(C(F)(F)F)cc2)CC1 [(R)-7, 2-(4-Chlorophenyl)-1-{4-[4-(trifluoromethyl)phenyl]piperazin-1-yl}-2-(pyridin-3-yl)ethanone], the “predicted human EH” value ([1]; Table 2) is reported as 0.61.

For O=C([C@@H](c1ccc(Cl)cc1)c1cccnc1)N1CCN(c2ccc(C(F)(F)F)cc2)CC1 [(S)-7, 2-(4-Chlorophenyl)-1-{4-[4-(trifluoromethyl)phenyl]piperazin-1-yl}-2-(pyridin-3-yl)ethanone], the “predicted human EH” value ([1]; Table 2) was 0.53, the “cure by PCR analyses of organs and blood” value (T. cruzi (Tulahuen TcVI) [3]; 5 mg/kg daily oral) was “cure had not been achieved” and the “mouse survival after infection, day 8” value (T. cruzi (Tulahuen TcVI) [3]; [13]) was 4 of 4. For the same compound, the “mouse survival after infection, day 28” value (T. cruzi (Tulahuen TcVI) [3]; [13]) was 4 of 4, the “mouse survival after infection, day 37” value (T. cruzi (Tulahuen TcVI) [3]; [13]) was 4 of 4 and the “mouse survival after infection, day 58” value (T. cruzi (Tulahuen TcVI) [3]; [13]) was 3 out of 4 and 3 of 4. For the same compound, the “–ve PCR” value (T. cruzi (Tulahuen TcVI) [3]; 5 mg/kg, PCR of blood and tissues) was 0 of 3, the “mouse survival after infection, day 8” value (T. cruzi (Tulahuen TcVI) [3]; [14]) was 4 of 4 and the “mouse survival after infection, day 28” value (T. cruzi (Tulahuen TcVI) [3]; [14]) was 4 of 4. For the same compound, the “mouse survival after infection, day 37” value (T. cruzi (Tulahuen TcVI) [3]; [14]) was 4 of 4, the “mouse survival after infection, day 58” value (T. cruzi (Tulahuen TcVI) [3]; [14]) was 3 of 4 and the “–ve PCR” value (T. cruzi (Tulahuen TcVI) [3]; 10 mg/kg, PCR of blood and tissues) was 2 out of the 3 and 2 of 3.

In the case of O=C(N[C@@H](Cn1ccnc1)c1ccc(Cl)cc1Cl)c1ccc(-c2nnc(-c3ccccc3)o2)cc1 [VNI], the parasitological cure (T. cruzi [4]) is listed as “parasitological cure”.

In the case of O=C(Cn1ccnc1[N+](=O)[O-])NCc1ccccc1 [benznidazole, reference compound], the IC50 (in vitro) is listed as over 100000 nM, the IC50 ([5]; read-out: Tc IC50) is listed as 1500 nM and the “adult patients experiencing serious adverse reactions” value (T. cruzi [6]) is listed as “up to 30%”. The “cure rates, acute stage of the infection” value (T. cruzi [6]; patients) was “up to 60%”, the “parasites in blood during the immunosuppression phase” value (T. cruzi (Tulahuen TcVI) [3]; 100 mg/kg oral) was “re-emergence of parasites in blood” and the “mouse survival after infection, day 8” value (T. cruzi (Tulahuen TcVI) [3]; [15]) was 5 of 5. The “mouse survival after infection, day 28” value (T. cruzi (Tulahuen TcVI) [3]; [15]) was 4 of 5, the “mouse survival after infection, day 37” value (T. cruzi (Tulahuen TcVI) [3]; [15]) was 4 of 5 and the “mouse survival after infection, day 58” value (T. cruzi (Tulahuen TcVI) [3]; [15]) was 0 of 5.

For N#Cc1ccc(C(O)(c2ccc(C(F)(F)F)cc2)c2cccnc2)cc1 (centres unmarked) [compound 2, 4-(hydroxy(pyridin-3-yl)[4-(trifluoromethyl)phenyl]methyl)benzonitrile], the IC50 [5] is listed as 12 nM, the parasitological cure (T. cruzi (Tulahuen TcVI) [7]; three cycles of immunosuppression) is listed as “had not achieved a parasitological cure” and the “parasites cleared” value (T. cruzi (Tulahuen TcVI) [2]) is listed as “yes”.

With N#Cc1ccc(C(c2cccnc2)N2CCC(NC(=O)c3c(F)cccc3F)CC2)cc1 (centres unmarked) [compound 4] the “parasites cleared” value (T. cruzi (Tulahuen TcVI) [2]) was “no”.

For Fc1cc(Cl)ccc1C(NC1CCN(c2ccc(C(F)(F)F)cc2)CC1)c1cccnc1 (centres unmarked) [compound 5], the “parasites cleared” value (T. cruzi (Tulahuen TcVI) [2]) was “yes”.

In the case of FC(F)(F)c1ccc(N(c2cccnc2)C2CCN(c3ccc(C(F)(F)F)cn3)CC2)cc1 [compound 6, N-[4-(Trifluoromethyl)phenyl]-N-(1-[5-(trifluoromethyl)pyridin-2-yl]piperidin-4-yl)pyridin-3-amine], the “predicted human EH” value ([1]; Table 1) is reported as 0.68, the “parasites cleared” value (T. cruzi (Tulahuen TcVI) [2]) is reported as “yes” and the “mice microscopically parasite free following three cycles of immunosuppression” value (T. cruzi (Tulahuen TcVI) [3]; [16]) is reported as 3 out of 4. For the same compound, the “mice parasite free at the end of dosing” value (T. cruzi (Tulahuen TcVI) [3]; [16]) was 4 out of 5, the “mouse survival after infection, day 8” value (T. cruzi (Tulahuen TcVI) [3]; [8]) was 5 of 5 and the “mouse survival after infection, day 58” value (T. cruzi (Tulahuen TcVI) [3]; [9]) was 3 of 5. The “mouse survival after infection, day 28” value (T. cruzi (Tulahuen TcVI) [3]; [10]) was 4 of 5, the “mouse survival after infection, day 37” value (T. cruzi (Tulahuen TcVI) [3]; [11]) was 4 of 5 and the “–ve PCR” value (T. cruzi (Tulahuen TcVI) [3]; [12]) was 3 of 3. The parasitological cure (T. cruzi (Tulahuen TcVI) [3]; lower doses, 5 and 10 mg/kg, data not shown) was “parasitological cure was not observed”.

With CC(C)(C)CC(=O)N1CCC(N(c2ccc(Cl)cc2)c2cccnc2)CC1 [compound 16] the “predicted human EH” value ([1]; Table 1) was 0.91.

With Cc1ccccc1CN1CCC(N(c2ccc(C(F)(F)F)cc2)c2cccnc2)CC1 [compound 22] the “predicted human EH” value ([1]; Table 1) was 0.87.

With N#Cc1ccccc1N1CCC(N(c2ccc(C(F)(F)F)cc2)c2cccnc2)CC1 [compound 25] the “predicted human EH” value ([1]; Table 1) was 0.88.

For FC(F)(F)c1ccc(N(c2cccnc2)C2CCN(c3ccc(Cl)cc3)CC2)cc1 [compound 27], the “predicted human EH” value ([1]; Table 1) was 0.65.

With N#Cc1ccc(N(c2cccnc2)C2CCN(c3ccc(C(F)(F)F)cc3)CC2)cc1 [compound 31] the “predicted human EH” value ([1]; Table 1) was 0.69.

In the case of CS(=O)(=O)c1ccc(N2CCC(N(c3ccc(C#N)cc3)c3cccnc3)CC2)cc1 [compound 33], the “predicted human EH” value ([1]; Table 1) is reported as 0.47.

In the case of FC(F)(F)c1ccc(N(c2cncnc2)C2CCN(c3ccc(C(F)(F)F)cn3)CC2)cc1 [compound 34], the “predicted human EH” value ([1]; Table 1) is reported as 0.63.

With N#Cc1ccc(C(C(=O)N2CCN(c3ccc(C(F)(F)F)cc3)CC2)c2cccnc2)cc1 (centres unmarked) [compound 40] the “predicted human EH” value ([1]; Table 2) was 0.70.

For O=C(C(c1ccc(Cl)cc1)c1cccnc1)N1CCN(c2ccc(C(F)(F)F)nc2)CC1 (centres unmarked) [compound 41], the “predicted human EH” value ([1]; Table 2) was 0.77.

In the case of N#Cc1ccc(C(C(=O)N2CCN(c3ccc(C(F)(F)F)nc3)CC2)c2cccnc2)cc1 (centres unmarked) [compound 42], the “predicted human EH” value ([1]; Table 2) is reported as 0.56.

In the case of O=C(C(c1ccc(Cl)cc1)c1cccnc1)N1CCN(c2ccc(C(F)(F)F)cn2)CC1 (centres unmarked) [compound 43], the solubility (physchem) is reported as 25 µg/mL (≈ 54.2 µM) and the “predicted human EH” value ([1]; Table 2) is reported as 0.70.

In the case of N#Cc1ccc(C(C(=O)N2CCN(c3ccc(C(F)(F)F)cn3)CC2)c2cccnc2)cc1 (centres unmarked) [compound 44], the “predicted human EH” value ([1]; Table 2) is reported as 0.56.

For CS(=O)(=O)c1ccc(N2CCN(C(=O)C(c3ccc(Cl)cc3)c3cccnc3)CC2)cc1 (centres unmarked) [compound 45], the “predicted human EH” value ([1]; Table 2) was 0.82.

With CS(=O)(=O)c1ccc(N2CCN(C(=O)C(c3ccc(C#N)cc3)c3cccnc3)CC2)cc1 (centres unmarked) [compound 46] the “predicted human EH” value ([1]; Table 2) was 0.46.

In the case of N#Cc1ccc(C(c2cccnc2)N2CCC(NC(=O)c3ccccc3)CC2)cc1 (centres unmarked) [compound 47], the “parasites cleared” value (T. cruzi (Tulahuen TcVI) [2]) is reported as “no”.

In the case of N#Cc1cccc(N2CCC(NC(c3cccnc3)c3ccc(Cl)cc3F)CC2)c1 (centres unmarked) [compound 48], the “parasites cleared” value (T. cruzi (Tulahuen TcVI) [2]) is reported as “no”.

For Cc1cc(C(=O)NC2CCN(C(c3ccc(C#N)cc3)c3cccnc3)CC2)n(C)n1 (centres unmarked) [compound 50], the “parasites cleared” value (T. cruzi (Tulahuen TcVI) [2]) was “no”.

In the case of Cc1ncsc1C(=O)N1CCC(NC(c2ccc(C(F)(F)F)cc2)c2cccnc2)CC1 (centres unmarked) [compound 51], the “parasites cleared” value (T. cruzi (Tulahuen TcVI) [2]) is reported as “no”.

With N#Cc1ccc(C(O)(c2ccc(C(F)(F)F)cc2)c2cccnc2)c(F)c1 (centres unmarked) [compound 52] the IC50 [5] was 2 nM and the “parasites cleared” value (T. cruzi (Tulahuen TcVI) [2]) was “yes”.

For CC[C@@H]([C@H](C)O)n1ncn(-c2ccc(N3CCN(c4ccc(OC[C@@H]5CO[C@@](Cn6cncn6)(c6ccc(F)cc6F)C5)cc4)CC3)cc2)c1=O [posaconazole, reference compound], the IC50 (in vitro) is given as over 100000 nM, the IC50 ([5]; read-out: Tc IC50) is given as 0.7 nM and the mice cured (T. cruzi (Tulahuen TcVI) [7]; subchronic mouse model) is given as about 60%. For the same compound, the “parasites cleared” value (T. cruzi (Tulahuen TcVI) [2]) was “yes”.
